In ChEMBL document CHEMBL4130445, “TNF-α and IL-6 inhibitors: Conjugates of N-substituted indole and aminophenylmorpholin-3-one as anti-inflammatory agents” (Eur J Med Chem, 2017):
Calls of active or inactive are those of the source. The calls are words filed in the database; no cut-off is given here.

Columns and labels:
[1] = Cytotoxicity in mouse BV2 cells assessed as cell viability at 10 uM incubated for 48 hrs by MTT assay (reference value: 100%); type: cell-based, BV-2; conditions: read-out: Activity
[2] = Cytotoxicity in mouse BV2 cells assessed as cell viability at 5 uM incubated for 48 hrs by MTT assay (reference value: 100%); type: cell-based, BV-2; conditions: read-out: Activity
BV-2 [3] = test: Inhibition of LPS-induced TNFalpha production in mouse BV2 cells assessed as TNFalpha level at 20 uM pre-incubated before LPS stimulation by ELISA (reference value: 142.71%); type: functional; parameters: scale not given: the % may be the effect or the level left
Mus musculus [4] = test: Analgesic activity in Swiss albino mouse model of acetic acid induced writhing assessed as inhibition of pain response at 10 mg/kg, ip dosed 30 mins before acetic acid injection; type: functional
BV-2 [5] = test: Inhibition of LPS-induced nitric oxide production in mouse BV2 cells assessed as nitric oxide level at 10 uM pre-incubated before LPS stimulation by Griess reagent based assay (reference value: 121.09%); type: functional; parameters: scale not given: the % may be the effect or the level left
[6] = Cytotoxicity in mouse BV2 cells assessed as cell viability at 100 uM incubated for 48 hrs by MTT assay (reference value: 100%); type: cell-based, BV-2; conditions: read-out: Activity
BV-2 [7] = test: Inhibition of LPS-induced MMP9 production production in mouse BV2 cells assessed as MMP9 protein level pre-incubated before LPS stimulation by gelatin zymography (reference value: 105.113%); type: functional; parameters: scale not given: the % may be the effect or the level left
BV-2 [8] = test: Inhibition of LPS-induced TNFalpha production in mouse BV2 cells assessed as TNFalpha level at 10 uM pre-incubated before LPS stimulation by ELISA (reference value: 142.71%); type: functional; parameters: scale not given: the % may be the effect or the level left
[9] = Cytotoxicity in mouse BV2 cells assessed as cell viability at 40 uM incubated for 48 hrs by MTT assay (reference value: 100%); type: cell-based, BV-2; conditions: read-out: Activity
[10] = Cytotoxicity in mouse BV2 cells assessed as cell viability at 0.5 uM incubated for 48 hrs by MTT assay (reference value: 100%); type: cell-based, BV-2; conditions: read-out: Activity
BV-2 [11] = test: Suppression of LPS-induced morphological changes in mouse BV2 cells at 5 uM pre-incubated before LPS stimulation by phase contrast microscopy; type: functional, cell-based
BV-2 [12] = test: Inhibition of LPS-induced TNFalpha production in mouse BV2 cells at 20 uM pre-incubated before LPS stimulation by ELISA; type: functional
BV-2 [13] = test: Inhibition of LPS-induced IL6 production in mouse BV2 cells assessed as IL6 level at 20 uM pre-incubated before LPS stimulation by ELISA (reference value: 146.75%); type: functional; parameters: scale not given: the % may be the effect or the level left
[14] = molecular target: Transcription factor Jun (Mus musculus) (UniProt P05627); test: Inhibition of LPS-induced AP1 nuclear translocation in mouse BV2 cells pre-incubated before LPS stimulation by immunostaining based confocal laser microscopy; type: cell-based
[15] = molecular target: T1, Prostaglandin G/H synthase 2 (Homo sapiens) (UniProt P35354); test: Inhibition of COX2 (unknown origin) by immunoassay
T1 sequence (whole entry): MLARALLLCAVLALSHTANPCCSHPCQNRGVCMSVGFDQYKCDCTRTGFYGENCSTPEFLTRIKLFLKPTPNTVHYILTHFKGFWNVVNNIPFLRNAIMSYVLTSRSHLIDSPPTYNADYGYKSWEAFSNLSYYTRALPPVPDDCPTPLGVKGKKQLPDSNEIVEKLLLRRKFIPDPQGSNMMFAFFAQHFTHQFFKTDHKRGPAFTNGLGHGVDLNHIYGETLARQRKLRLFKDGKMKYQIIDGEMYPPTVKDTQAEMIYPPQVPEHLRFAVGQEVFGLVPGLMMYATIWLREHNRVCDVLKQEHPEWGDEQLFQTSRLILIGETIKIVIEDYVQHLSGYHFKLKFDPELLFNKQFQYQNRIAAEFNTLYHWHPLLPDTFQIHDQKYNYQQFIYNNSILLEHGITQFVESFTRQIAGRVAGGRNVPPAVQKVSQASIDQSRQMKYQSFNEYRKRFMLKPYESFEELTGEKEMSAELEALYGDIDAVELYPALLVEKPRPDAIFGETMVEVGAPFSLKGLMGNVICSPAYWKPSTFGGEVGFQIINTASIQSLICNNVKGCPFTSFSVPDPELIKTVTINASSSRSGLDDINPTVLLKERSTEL

Mus musculus [16] = species: Mus musculus; test: Inhibition of LPS-induced NFkappaB nuclear translocation in mouse BV2 cells pre-incubated before LPS stimulation by immunostaining based confocal laser microscopy; type: cell-based
BV-2 [17] = test: Inhibition of LPS-induced MMP2 production production in mouse BV2 cells assessed as MMP2 protein level pre-incubated before LPS stimulation by gelatin zymography (reference value: 105.071%); type: functional; parameters: scale not given: the % may be the effect or the level left
BV-2 [18] = test: Inhibition of LPS-induced IL6 production in mouse BV2 cells assessed as IL6 level at 10 uM pre-incubated before LPS stimulation by ELISA (reference value: 146.75%); type: functional; parameters: scale not given: the % may be the effect or the level left
BV-2 [19] = test: Inhibition of LPS-induced IL6 production in mouse BV2 cells at 10 uM pre-incubated before LPS stimulation by ELISA; type: functional
[20] = Cytotoxicity in mouse BV2 cells assessed as cell viability at 60 uM incubated for 48 hrs by MTT assay (reference value: 100%); type: cell-based, BV-2; conditions: read-out: Activity
BV-2 [21] = test: Inhibition of LPS-induced IL6 production in mouse BV2 cells at 20 uM pre-incubated before LPS stimulation by ELISA; type: functional
BV-2 [22] = test: Suppression of LPS-induced morphological changes in mouse BV2 cells at 10 uM pre-incubated before LPS stimulation by phase contrast microscopy; type: functional, cell-based
BV-2 [23] = test: Inhibition of LPS-induced MMP2 production production in mouse BV2 cells pre-incubated before LPS stimulation by gelatin zymography; type: functional, cell-based
BV-2 [24] = test: Inhibition of LPS-induced TNFalpha production in mouse BV2 cells at 10 uM pre-incubated before LPS stimulation by ELISA; type: functional
[25] = Cytotoxicity in mouse BV2 cells assessed as cell viability at 80 uM incubated for 48 hrs by MTT assay (reference value: 100%); type: cell-based, BV-2; conditions: read-out: Activity
[26] = Cytotoxicity in mouse BV2 cells assessed as cell viability at 15 uM incubated for 48 hrs by MTT assay (reference value: 100%); type: cell-based, BV-2; conditions: read-out: Activity
Mus musculus [27] = test: Toxicity in Swiss albino mouse model of acetic acid induced writhing up to 2000 mg/kg, ip dosed 30 mins before acetic acid injection; type: organism-based; conditions: in vivo, 0.5 h
BV-2 [28] = test: Inhibition of LPS-induced MMP9 production production in mouse BV2 cells pre-incubated before LPS stimulation by gelatin zymography; type: functional, cell-based
BV-2 [29] = test: Cytotoxicity in mouse BV2 cells assessed as reduction in cell viability incubated for 48 hrs by MTT assay; type: cell-based; conditions: BV-2, 48 h
[30] = Cytotoxicity in mouse BV2 cells assessed as cell viability at 1 uM incubated for 48 hrs by MTT assay (reference value: 100%); type: cell-based, BV-2; conditions: read-out: Activity
[31] = Cytotoxicity in mouse BV2 cells assessed as cell viability at 20 uM incubated for 48 hrs by MTT assay (reference value: 100%); type: cell-based, BV-2; conditions: read-out: Activity
BV-2 [32] = test: Inhibition of LPS-induced nitric oxide production in mouse BV2 cells assessed as nitric oxide level at 20 uM pre-incubated before LPS stimulation by Griess reagent based assay (reference value: 121.09%); type: functional; parameters: scale not given: the % may be the effect or the level left

Chain of Transcription factor Jun (Mus musculus) (P05627 whole entry): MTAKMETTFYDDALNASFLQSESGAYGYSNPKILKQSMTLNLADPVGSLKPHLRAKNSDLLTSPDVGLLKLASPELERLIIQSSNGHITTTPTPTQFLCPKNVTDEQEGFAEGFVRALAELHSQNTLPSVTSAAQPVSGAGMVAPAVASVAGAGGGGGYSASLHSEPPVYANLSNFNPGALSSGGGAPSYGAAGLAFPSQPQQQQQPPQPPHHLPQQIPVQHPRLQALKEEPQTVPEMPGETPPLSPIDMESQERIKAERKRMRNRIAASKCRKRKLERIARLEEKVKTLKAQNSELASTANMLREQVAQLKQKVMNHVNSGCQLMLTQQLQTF

Compound: O=C1COCCN1c1ccc(/N=C\c2cn(C(=O)c3ccc(Cl)cc3)c3ccccc23)cc1
- viability at 48 h, 10 µM [1]: 90.1%
- viability at 48 h, 5 µM [2]: 93.6%
- Activity (BV-2 [3]): 41.58%
- inhibition in vivo at 10 mg/kg (Mus musculus [4]): 74.9%
- Activity (BV-2 [5]): 100.905%
- viability at 48 h, 100 µM [6]: 80.5%
- Activity (BV-2 [7]): 89.261%
- Activity (BV-2 [8]): 56.34%
- viability at 48 h, 40 µM [9]: 96.6%
- viability at 48 h, 0.5 µM [10]: 95.2%
- Activity (BV-2 [11]): Active
- inhibition at 20 µM (BV-2 [12]): 70.9%
- Activity (BV-2 [13]): 69.12%
- inhibition [14]: Active
- inhibition [15]: inactive
- inhibition (Mus musculus [16]): Active
- Activity (BV-2 [17]): 84.884%
- Activity (BV-2 [18]): 76.51%
- inhibition at 10 µM (BV-2 [19]): 47.9%
- viability at 48 h, 60 µM [20]: 84.2%
- inhibition at 20 µM (BV-2 [21]): 52.9%
- Activity (BV-2 [22]): Active
- inhibition (BV-2 [23]): Active
- inhibition at 10 µM (BV-2 [24]): 60.5%
- viability at 48 h, 80 µM [25]: 90.3%
- viability at 48 h, 15 µM [26]: 105%
- Activity (Mus musculus [27]): Non-Toxic
- inhibition (BV-2 [28]): Active
- IC50 (BV-2 [29]): > 100 µM
- viability at 48 h, 1 µM [30]: 97.6%
- viability at 48 h, 20 µM [31]: 99%
- Activity (BV-2 [32]): 100.905%
